Laboratory results: US20200239530A1, “COMPOUNDS AND METHODS OF MODULATING PROTEIN DEGRADATION” (Vividion Therapeutics, Inc., priority 2017, published 2020)
One block for each compound: values may come before it.

Tests used:
Assay type in all cases: binding
[1] = target: T1, cysteine residue illustrated in Table 1A or Table 2A (Homo sapiens, UniProt O60826); assay: Competitive cysteine profiling of cell lysate with desthiobiotin iodoacetamide probe (96-well sample prep); settings: UniProt O60826; 100 uM
T1 construct: Cells were resuspended in cold PBS on ice and sonicated with a probe sonicator to achieve lysis; endogenous in cells
Summary of the method: (§1)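 Competitive profiling: compound and lysate (5 mg/ml protein) incubated 1 h at 25 °C before a 1 h, 25 °C desthiobiotin iodoacetamide probe step. Proteins were acetone-precipitated, reduced, alkylated and trypsinized; streptavidin-captured labelled peptides were eluted for MS analysis.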

[2] = target: T2, cysteine residue illustrated in Table 1A or Table 2A (Homo sapiens, UniProt Q5T6F0); assay: as above; settings: UniProt Q5T6F0; 100 uM
T2 construct: Cells were resuspended in cold PBS on ice and sonicated with a probe sonicator to achieve lysis; endogenous in cells
Summary of the method: as §1

Q8ND25 = target: T3, Q8ND25 (Homo sapiens, UniProt Q8ND25); assay: Cysteine liganding, probe competition (Table 2B); settings: one line per cysteine site
T3 construct: 200 μL of lysate containing 5 mg/ml proteome was treated with 2 μL of 100× compound stock; endogenous in cells
From the text: (§2) The following 96-well sample prep protocol was used for sample preparation.

Q8NHG8 = target: T4, Q8NHG8 (Homo sapiens, UniProt Q8NHG8); assay: Cysteine liganding, probe competition (Table 2B); settings: one line per cysteine site
T4 construct: 200 μL of lysate containing 5 mg/ml proteome was treated with 2 μL of 100× compound stock; endogenous in cells
From the text: as §2

[3] = target: cysteine residue illustrated in Table 1A or Table 2A (Homo sapiens, UniProt Q13616); assay: Competitive cysteine profiling of cell lysate with desthiobiotin iodoacetamide probe (96-well sample prep); set-up: endogenous in cells; settings: UniProt Q13616; 100 uM
Procedure: In some embodiments, the solution sample (e.g., cell sample, cell lysate sample, or comprising isolated proteins) is incubated with a compound of Formula (I) for analysis of protein-probe interactions. In some instances, the solution sample (e.g., cell sample, cell lysate sample, or comprising isolated proteins) is further incubated in the presence of an additional compound probe prior to addition of the compound of Formula (I). […] In such instances, the solution sample is incubated with a probe and a ligand for competitive protein profiling analysis.
as §2
Cells were resuspended in cold PBS on ice and sonicated with a probe sonicator to achieve lysis. 200 μL of lysate containing 5 mg/ml proteome was treated with 2 μL of 100× compound stock in a 2-mL deep-well plate. The treated lysate was subsequently incubate at 25° C. for 1 hr with shaking at 600 rpm. The treated lysate was further incubated with 2 μL of 10 mM desthiobiotin iodoacetamide probe at 25° C. for 1 hr with shaking at 600 rpm. Next, the lysate was further treat with 20 μL of solution of PBS containing 11 mM MgSO4 and 2.5% Turbonuclease stock and incubated at 25° C. for 20 minutes with shaking at 600 rpm. 1.7 mL ice-cold acetone was added to each well and incubated at −20° C. for 2 hr, followed by max speed (4200 rpm) spin for 45 min. […]

[4] = target: T5, cysteine residue illustrated in Table 1A or Table 2A (Homo sapiens, UniProt O75155); assay: as above; settings: UniProt O75155; 100 uM
T5 construct: Cells were resuspended in cold PBS on ice and sonicated with a probe sonicator to achieve lysis; endogenous in cells
Summary of the method: as §1

[5] = target: T6, NUBP1 Cytosolic Fe—S cluster assembly factor NUBP1 (Homo sapiens, UniProt P53384); assay: Cysteine liganding, probe competition; settings: for Liganded: NUBP1 Res# 31, uniprot P53384
T6 construct: Cells were resuspended in cold PBS on ice and sonicated with a probe sonicator to achieve lysis; endogenous in cells
T6 sequence (P53384 1-320): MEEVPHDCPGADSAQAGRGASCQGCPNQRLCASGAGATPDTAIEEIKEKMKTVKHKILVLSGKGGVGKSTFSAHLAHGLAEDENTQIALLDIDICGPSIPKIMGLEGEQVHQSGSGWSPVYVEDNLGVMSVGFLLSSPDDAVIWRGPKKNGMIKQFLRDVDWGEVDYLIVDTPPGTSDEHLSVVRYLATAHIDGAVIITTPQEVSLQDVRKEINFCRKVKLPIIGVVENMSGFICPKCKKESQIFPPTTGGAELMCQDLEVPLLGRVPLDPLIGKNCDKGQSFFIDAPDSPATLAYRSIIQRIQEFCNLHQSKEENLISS
Summary of the method: (§3)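 Probe competition in native proteome: 5 mg/ml lysate, compound 1 hr 25° C, then desthiobiotin iodoacetamide (10 mM stock) 1 hr 25° C; acetone ppt, urea/DTT reduction, iodoacetamide alkylation, trypsin, streptavidin pull-down.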

[6] = target: T7, RPS6KA3 Ribosomal protein S6 kinase alpha-3 (Homo sapiens, UniProt P51812); assay: Cysteine liganding, probe competition
T7 construct: Cells were resuspended in cold PBS on ice and sonicated with a probe sonicator to achieve lysis; endogenous in cells
Summary of the method: as §3

[7] = target: T8, HECTD1 E3 ubiquitin-protein ligase HECTD1 (Homo sapiens, UniProt Q9ULT8); assay: Cysteine liganding, probe competition
T8 construct: Cells were resuspended in cold PBS on ice and sonicated with a probe sonicator to achieve lysis; endogenous in cells
Summary of the method: as §3

[8] = target: T9, RNF40 E3 ubiquitin-protein ligase BRE1B (Homo sapiens, UniProt O75150); assay: Cysteine liganding, probe competition
T9 construct: Cells were resuspended in cold PBS on ice and sonicated with a probe sonicator to achieve lysis; endogenous in cells
Summary of the method: as §3

[9] = 100 uM, read-out: KB05_100 uM_percent_inhibition
[10] = 500 uM, read-out: KB02_500 uM_percent_inhibition

T7 sequence (P51812 whole entry): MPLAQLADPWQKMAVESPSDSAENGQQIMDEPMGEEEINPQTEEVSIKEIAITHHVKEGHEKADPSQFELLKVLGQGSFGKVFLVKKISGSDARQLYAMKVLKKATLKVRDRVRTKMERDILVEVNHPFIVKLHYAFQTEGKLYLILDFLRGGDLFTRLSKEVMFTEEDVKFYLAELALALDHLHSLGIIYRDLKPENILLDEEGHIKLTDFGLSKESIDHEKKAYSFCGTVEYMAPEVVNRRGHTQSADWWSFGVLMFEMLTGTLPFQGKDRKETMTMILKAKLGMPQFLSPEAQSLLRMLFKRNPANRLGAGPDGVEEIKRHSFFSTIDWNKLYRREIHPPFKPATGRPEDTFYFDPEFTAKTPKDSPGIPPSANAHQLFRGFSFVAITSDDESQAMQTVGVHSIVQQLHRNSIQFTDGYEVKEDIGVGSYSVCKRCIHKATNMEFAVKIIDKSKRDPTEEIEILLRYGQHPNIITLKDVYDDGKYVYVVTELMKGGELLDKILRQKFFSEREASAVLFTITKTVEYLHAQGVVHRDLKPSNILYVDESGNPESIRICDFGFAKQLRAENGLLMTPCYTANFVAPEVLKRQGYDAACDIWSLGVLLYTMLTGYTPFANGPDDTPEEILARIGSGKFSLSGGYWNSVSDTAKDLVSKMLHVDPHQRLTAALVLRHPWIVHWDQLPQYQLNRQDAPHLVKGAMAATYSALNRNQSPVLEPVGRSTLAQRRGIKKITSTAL
T8 sequence (Q9ULT8 whole entry): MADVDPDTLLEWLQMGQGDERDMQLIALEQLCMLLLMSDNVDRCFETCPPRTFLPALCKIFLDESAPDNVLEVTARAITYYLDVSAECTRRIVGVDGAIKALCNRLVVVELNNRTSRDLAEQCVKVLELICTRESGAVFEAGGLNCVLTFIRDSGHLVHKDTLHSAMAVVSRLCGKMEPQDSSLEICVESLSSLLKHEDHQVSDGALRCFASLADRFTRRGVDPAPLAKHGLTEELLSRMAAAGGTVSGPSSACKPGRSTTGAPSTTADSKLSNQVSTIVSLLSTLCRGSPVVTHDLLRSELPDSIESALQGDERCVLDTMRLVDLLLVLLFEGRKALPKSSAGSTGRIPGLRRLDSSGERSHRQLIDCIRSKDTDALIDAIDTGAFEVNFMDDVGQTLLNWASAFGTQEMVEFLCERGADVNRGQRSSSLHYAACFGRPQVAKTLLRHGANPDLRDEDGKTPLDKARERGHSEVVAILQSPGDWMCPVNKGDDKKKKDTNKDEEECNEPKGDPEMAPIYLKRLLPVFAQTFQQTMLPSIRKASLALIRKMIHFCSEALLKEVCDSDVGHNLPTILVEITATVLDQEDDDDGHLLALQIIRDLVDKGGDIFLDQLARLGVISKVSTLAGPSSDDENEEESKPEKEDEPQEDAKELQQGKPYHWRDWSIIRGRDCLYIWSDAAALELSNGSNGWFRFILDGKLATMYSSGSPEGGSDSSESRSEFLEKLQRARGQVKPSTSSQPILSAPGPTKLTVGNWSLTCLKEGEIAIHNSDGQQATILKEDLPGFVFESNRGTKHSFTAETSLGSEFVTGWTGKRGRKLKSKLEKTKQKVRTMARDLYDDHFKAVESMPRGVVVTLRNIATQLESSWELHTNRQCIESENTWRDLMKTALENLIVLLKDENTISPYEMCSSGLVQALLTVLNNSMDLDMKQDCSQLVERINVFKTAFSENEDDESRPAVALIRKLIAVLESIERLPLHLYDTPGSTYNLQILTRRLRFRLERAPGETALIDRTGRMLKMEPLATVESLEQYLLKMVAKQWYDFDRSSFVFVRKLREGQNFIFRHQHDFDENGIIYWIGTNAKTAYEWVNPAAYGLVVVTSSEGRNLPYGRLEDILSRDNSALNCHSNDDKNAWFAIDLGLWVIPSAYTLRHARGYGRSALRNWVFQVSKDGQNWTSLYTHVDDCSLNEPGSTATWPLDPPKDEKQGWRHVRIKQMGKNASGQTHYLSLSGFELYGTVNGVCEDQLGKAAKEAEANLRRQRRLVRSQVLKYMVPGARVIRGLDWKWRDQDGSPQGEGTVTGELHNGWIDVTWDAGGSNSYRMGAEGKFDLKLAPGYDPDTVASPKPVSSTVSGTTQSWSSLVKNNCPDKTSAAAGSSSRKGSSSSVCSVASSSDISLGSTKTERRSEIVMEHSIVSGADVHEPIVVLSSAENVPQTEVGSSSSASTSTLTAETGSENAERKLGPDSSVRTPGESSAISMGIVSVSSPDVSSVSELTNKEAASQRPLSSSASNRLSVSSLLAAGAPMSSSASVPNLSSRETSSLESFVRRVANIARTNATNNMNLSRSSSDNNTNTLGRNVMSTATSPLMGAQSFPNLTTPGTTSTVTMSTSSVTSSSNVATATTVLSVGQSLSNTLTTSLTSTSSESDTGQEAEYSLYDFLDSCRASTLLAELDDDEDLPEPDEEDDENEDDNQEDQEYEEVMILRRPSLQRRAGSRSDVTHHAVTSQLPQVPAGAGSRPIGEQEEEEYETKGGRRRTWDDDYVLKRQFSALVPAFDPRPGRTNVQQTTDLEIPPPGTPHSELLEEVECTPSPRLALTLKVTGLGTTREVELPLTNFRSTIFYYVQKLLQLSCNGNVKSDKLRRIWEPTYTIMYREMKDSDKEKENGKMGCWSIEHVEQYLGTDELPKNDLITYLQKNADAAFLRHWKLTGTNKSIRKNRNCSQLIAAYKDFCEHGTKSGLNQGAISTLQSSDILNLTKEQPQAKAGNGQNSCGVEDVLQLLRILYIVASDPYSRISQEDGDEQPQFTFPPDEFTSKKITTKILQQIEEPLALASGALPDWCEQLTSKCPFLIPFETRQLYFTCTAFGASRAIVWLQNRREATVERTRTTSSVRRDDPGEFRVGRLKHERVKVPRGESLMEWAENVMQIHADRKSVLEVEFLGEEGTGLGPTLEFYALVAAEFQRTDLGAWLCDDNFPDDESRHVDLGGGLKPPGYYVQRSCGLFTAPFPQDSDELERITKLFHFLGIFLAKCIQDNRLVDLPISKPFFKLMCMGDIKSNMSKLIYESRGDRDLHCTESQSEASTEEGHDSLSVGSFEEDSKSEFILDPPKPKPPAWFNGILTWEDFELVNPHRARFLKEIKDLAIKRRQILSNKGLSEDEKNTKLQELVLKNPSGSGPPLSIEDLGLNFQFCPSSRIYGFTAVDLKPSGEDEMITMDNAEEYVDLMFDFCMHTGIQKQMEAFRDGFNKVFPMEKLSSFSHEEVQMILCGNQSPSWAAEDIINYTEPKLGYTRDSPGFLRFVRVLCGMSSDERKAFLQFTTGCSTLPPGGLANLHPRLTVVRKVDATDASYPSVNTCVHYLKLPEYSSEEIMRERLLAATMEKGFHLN
T9 sequence (O75150 whole entry): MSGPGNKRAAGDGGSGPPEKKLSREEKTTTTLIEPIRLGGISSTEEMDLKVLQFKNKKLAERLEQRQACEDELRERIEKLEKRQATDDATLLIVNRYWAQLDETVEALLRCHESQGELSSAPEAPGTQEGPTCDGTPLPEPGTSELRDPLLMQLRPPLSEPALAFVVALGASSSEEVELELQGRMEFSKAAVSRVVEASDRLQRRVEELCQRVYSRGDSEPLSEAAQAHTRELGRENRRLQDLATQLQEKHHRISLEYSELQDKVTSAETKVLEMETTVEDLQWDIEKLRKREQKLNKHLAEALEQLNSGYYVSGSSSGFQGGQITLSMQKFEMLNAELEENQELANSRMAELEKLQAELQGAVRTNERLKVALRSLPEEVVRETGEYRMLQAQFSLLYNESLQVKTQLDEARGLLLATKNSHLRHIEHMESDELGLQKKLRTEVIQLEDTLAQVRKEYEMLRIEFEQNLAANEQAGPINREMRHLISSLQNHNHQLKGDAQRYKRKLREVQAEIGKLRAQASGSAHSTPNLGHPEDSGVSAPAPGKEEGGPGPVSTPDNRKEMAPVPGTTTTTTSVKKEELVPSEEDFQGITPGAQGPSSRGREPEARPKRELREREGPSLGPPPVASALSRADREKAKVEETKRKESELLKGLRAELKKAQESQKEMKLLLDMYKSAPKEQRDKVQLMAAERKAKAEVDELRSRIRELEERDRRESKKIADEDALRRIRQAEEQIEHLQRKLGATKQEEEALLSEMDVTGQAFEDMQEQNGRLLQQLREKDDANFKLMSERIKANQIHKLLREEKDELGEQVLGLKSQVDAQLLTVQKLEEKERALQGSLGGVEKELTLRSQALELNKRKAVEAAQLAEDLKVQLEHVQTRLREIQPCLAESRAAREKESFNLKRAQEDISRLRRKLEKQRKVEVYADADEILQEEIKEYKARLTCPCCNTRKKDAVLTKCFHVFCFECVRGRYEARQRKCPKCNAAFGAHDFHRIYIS
cysteine residue illustrated in Table 1A or Table 2A (Homo sapiens, UniProt Q13616), sequence (Q13616 whole entry): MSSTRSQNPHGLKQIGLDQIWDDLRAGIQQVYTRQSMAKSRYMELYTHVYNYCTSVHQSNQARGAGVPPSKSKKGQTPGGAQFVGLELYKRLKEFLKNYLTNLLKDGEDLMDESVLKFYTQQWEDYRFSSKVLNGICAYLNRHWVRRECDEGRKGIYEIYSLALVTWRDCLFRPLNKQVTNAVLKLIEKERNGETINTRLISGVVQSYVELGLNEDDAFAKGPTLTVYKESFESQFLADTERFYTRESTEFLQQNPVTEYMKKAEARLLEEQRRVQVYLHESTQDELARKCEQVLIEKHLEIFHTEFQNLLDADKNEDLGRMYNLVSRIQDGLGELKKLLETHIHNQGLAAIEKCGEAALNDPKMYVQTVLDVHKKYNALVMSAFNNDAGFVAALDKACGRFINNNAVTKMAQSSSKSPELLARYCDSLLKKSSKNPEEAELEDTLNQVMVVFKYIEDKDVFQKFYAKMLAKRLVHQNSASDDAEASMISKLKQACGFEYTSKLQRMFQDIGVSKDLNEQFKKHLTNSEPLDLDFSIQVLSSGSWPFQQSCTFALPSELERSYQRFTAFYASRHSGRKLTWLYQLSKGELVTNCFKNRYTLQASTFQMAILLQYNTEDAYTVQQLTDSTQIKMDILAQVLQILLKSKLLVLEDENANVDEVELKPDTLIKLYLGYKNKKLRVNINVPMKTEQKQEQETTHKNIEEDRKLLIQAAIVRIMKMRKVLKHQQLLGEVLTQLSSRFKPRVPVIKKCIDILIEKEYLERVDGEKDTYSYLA

- KB05_100 uM_percent_inhibition [1]: 22%
- KB05_100 uM_percent_inhibition [2]: 31%
- inhibition at 100 µM (Q8ND25; [9]): 9%
- inhibition at 100 µM (Q8NHG8; [9]): 9%
- KB05_100 uM_percent_inhibition [3]: 4%
SMILES: C=CC(=O)N(c1ccccc1)c1ccc(Br)cc1 [KB05]

SMILES: O=C(CCl)Nc1cc(C(F)(F)F)cc(C(F)(F)F)c1 [KBO3]
- KB03_100 uM_percent_inhibition [1]: 7%
- KB03_100 uM_percent_inhibition [2]: 11%
- KB03_100 uM_percent_inhibition [4]: 31%
- Liganded [5]: YES
- 100 ave ([5]; uniprot P53384): 7.3775
- 500 Max ([5]; uniprot P53384): 75.8
- 500 ave ([5]; uniprot P53384): 55.66
- 100 Max ([5]; uniprot P53384, in % (unit assumed)): 28.64
- 100 Max ([6]; uniprot P51812): 1.03
- 100 ave ([6]; uniprot P51812): −4.767
- 500 ave ([6]; uniprot P51812): 30.61
- 500 Max ([6]; uniprot P51812, in % (unit assumed)): 30.61
- 100 ave ([7]; uniprot Q9ULT8): 0.1
- 500 ave ([7]; uniprot Q9ULT8): 72.6
- 100 Max ([7]; uniprot Q9ULT8, unit assumed): 1.2%
- 500 Max ([7]; uniprot Q9ULT8, unit assumed): 72.6%
- 100 ave ([8]; uniprot O75150): −9.9
- 500 Max ([8]; uniprot O75150): 29.2
- 500 ave ([8]; uniprot O75150): 24.5
- 100 Max ([8]; uniprot O75150, in % (unit assumed)): −5.2
- KB03_100 uM_percent_inhibition [3]: 31%

SMILES: COc1ccc2c(c1)CCCN2C(=O)CCl [KB02]
- KB02_100 uM_percent_inhibition [4]: 24%
- inhibition at 500 µM (Q8ND25; [10]): 42%
- inhibition at 500 µM (Q8NHG8; [10]): 35%
- Liganded [5]: YES
- Liganded ([6]; RPS6KA3 Res# 229, uniprot P51812): YES
- Liganded ([7]; HECTD1 Res# 1855, uniprot Q9ULT8): YES
- percent_inhibition ([8]; 500 uM, UniProt O75150): 24%
- Liganded ([8]; RNF40 Res# 890, uniprot O75150): YES
